We go through one compound from patent EP1640447A1, “BIOACTIVE PEPTIDE-PRODUCING STRAINS OF i ENTEROCOCCUS FAECALIS /i , BIOACTIVE PEPTIDES AND APPLICATIONS THEREOF” (Grupo Leche Pascual S.A., priority 2003, dated 2004).

In one experiment the test system is Wistar-Kyoto rats (WKY). Briefly: Blood pressure (tail cuff) after acute intragastric administration in normotensive Wistar-Kyoto rats. The experiment is classed as in vivo. The following applies: whey 5 mL/kg, Captopril 50 mg/kg, LSD test at each time. As for the experimental part: Male SHR and WKY rats of 17-20 weeks of age and weight comprised between 250 and 300 g were used, obtained from Charles River Laboratories Espana S.A.. The rats were kept at a stable ambient temperature of 23°C and with 12 hour light-dark cycles, taking water and food at will. The measurement of blood pressure in these animals was carried out by means of a modification of the tail cuff technique, originally disclosed by Buñag (Buñag RD. 1973. J Appl Physiol 34:79). This technique usually allows obtaining only systolic blood pressure (SBP) measurements; however, the equipment used in this study (Le50001 Letica model) allows differentiating the SBP and the diastolic blood pressure (DBP) of the animals, as it automatically provides the digital value of both parameters. For this reason the modification of the SBP and the DBP produced by the acute administration of the fermented milks and the peptides were tested in this study. Before placing the cuff on the tails of the rats, these were exposed to a temperature close to 30°C in order to facilitate the dilation of the caudal artery, and they were lightly anaesthetized with diethyl ether according to the process disclosed by Dietz et al. (Dietz R, Schömig A, Haebara H et al. 1978. Circ Res 43: I98-I106) in order to minimize the effect of stress on the measurement. […]

Experiment [1] deals with spontaneously hypertensive rats (SHR). Description: Blood pressure (tail cuff) after acute intragastric administration in spontaneously hypertensive rats. The format is in vivo. The settings on record: Captopril 50 mg/kg; for variation of diastolic blood pressure / variation of systolic blood pressure: mean ± standard error. The protocol: Male SHR and WKY rats of 17-20 weeks of age and weight comprised between 250 and 300 g were used, obtained from Charles River Laboratories Espana S.A.. The rats were kept at a stable ambient temperature of 23°C and with 12 hour light-dark cycles, taking water and food at will. The measurement of blood pressure in these animals was carried out by means of a modification of the tail cuff technique, originally disclosed by Buñag (Buñag RD. 1973. J Appl Physiol 34:79). This technique usually allows obtaining only systolic blood pressure (SBP) measurements; however, the equipment used in this study (Le50001 Letica model) allows differentiating the SBP and the diastolic blood pressure (DBP) of the animals, as it automatically provides the digital value of both parameters. For this reason the modification of the SBP and the DBP produced by the acute administration of the fermented milks and the peptides were tested in this study. Before placing the cuff on the tails of the rats, these were exposed to a temperature close to 30°C in order to facilitate the dilation of the caudal artery, and they were lightly anaesthetized with diethyl ether according to the process disclosed by Dietz et al. (Dietz R, Schömig A, Haebara H et al. 1978. Circ Res 43: I98-I106) in order to minimize the effect of stress on the measurement. Furthermore, in order to ensure the reliability of the measurement, the animals were familiarized with the process 2 weeks prior to performing the test in question.
The administration of the products to be tested was performed by means of intragastric probe in a time margin comprised between 9 and 10 am. The SHR rats used for the study had at that time SBP and DBP values comprised respectively between 240 and 290 mm Hg, and between 200 and 250 mm Hg. The WKY rats used for the study had at that time SBP and DBP values comprised respectively between 160 and 200 mm Hg, and between 100 and 140 mm Hg. SBP and DBP measurements were taken periodically in the animals, every 2 hours, up to 8 hours post-administration of the products to be tested; an additional measurement of both variables (SBP and DBP) was taken 24 hours after administration of said products.
In the case of the fermented milks, the supernatant (whey) obtained by centrifugation at 20,000 x g for 10 minutes of the milk fermented and pasteurized at 75°C for 1 minute following the process described in Example 2 was used as an administration product. From the corresponding supernatant a single administration of 5 mL/kg of animal body weight was used.
In the tests with peptide SEQ. ID. NO: 1 a single administration was also performed, and the dose used (2 mg/kg) was equivalent in ACEI activity units to the 5 mL/kg dose of supernatant of the milks fermented by E. faecalis CECT 5727, E. faecalis CECT 5728, E. faecalis CECT 5826 and E. faecalis CECT 5827. […] The most significant results were obtained with the peptide identified by SEQ. ID. NO: 1.
As a negative control (to establish the circadian variation of the SBP and the DBP in probed rats) the measurements obtained in rats that were administered 1 mL of water by intragastric probe were used. As a positive control (to establish the effect on the SBP and the DBP of a prototype ACEI drug, such as Captopril) the measurements of […] obtained in that were administered 50 mg /kg of Captopril by intragastric probe were used. This dose of Captopril was administered to each rat in a volume of 1 mL.
The results obtained were grouped and the mean ± standard error of the mean (SEM) for a minimum of 7 homogeneous tests was obtained. The data from treated animals was contrasted to one another and with the data considered as negative control. […]

Setting [2] is: Time 2 h after single intragastric administration, whey 5 mL/kg.
[3] abbreviates: Time 4 h after single intragastric administration, whey 5 mL/kg.
Setting [4] is: Time 6 h after single intragastric administration, whey 5 mL/kg.
[5] abbreviates: Time 8 h after single intragastric administration, whey 5 mL/kg.
The mark [6] stands for this setting: Time 24 h after single intragastric administration, whey 5 mL/kg.
[7] abbreviates: single intragastric administration, whey 5 mL/kg, peptide 2 mg/kg.

Marks after values point to notes of the source that are not given here.

As for `C[C@H](CS)C(=O)N1CCC[C@H]1C(=O)O` [Captopril], in the experiment on Wistar-Kyoto rats (WKY), the “changes in DBP” value is reported as “no significant differences”. Also, the “changes in SBP” value in the experiment with Wistar-Kyoto rats (WKY) is reported as “no significant differences”. Also, the “time after administration of maximum reduction / smallest values of DBP” value in experiment [1] (peptide 2 mg/kg, intragastric) worked out at 4 h. Further, the “time after administration of maximum reduction / smallest values of SBP” value in experiment [1] (whey 5 mL/kg, peptide 2 mg/kg, intragastric) was found to be 6 h. The “variation of diastolic blood pressure” value in experiment [1] (setting [2]) is reported as -28.29±2.40^a; in experiment [1] (setting [3]), -34.90±5.34^a; in experiment [1] (setting [4]), -28.63±5.77^a; in experiment [1] (setting [5]) it was -26.67±7.94^a; in experiment [1] (setting [6]), 1.37±1.02^a. The “variation of systolic blood pressure” value in experiment [1] (setting [2]) is on record as -36.08±4.52^a; in experiment [1] (setting [3]) it was -51.98±5.36^a; in experiment [1] (setting [4]), -54.19±5.11^a; in experiment [1] (setting [5]) it was -35.44±4.70^a; in experiment [1] (setting [6]), 1.23±1.49^a. For the same compound, the “reduction in DBP (in words)” value in experiment [1] (setting [7]) is recorded as “pronounced reduction”. Further, in experiment [1] (setting [7]), the “reduction in SBP (in words)” value is given as “pronounced reduction”.
